The subject of assay [1] is Helicobacter pylori. Nature of the assay: Inhibition of binding on thin-layer chromatograms with soluble oligosaccharides. The settings on record: for inhibition of binding of Helicobacter pylori to lactotetraosylceramide: 1 h room temperature, strain 17875 (FIG. 5). How it is done: As a test for possible inhibition of binding by soluble sugars 35S-labeled Helicobacter pylori strains 002 and 032 were incubated for 1 h at room temperature with various concentrations (0.05 mg/ml, 0.1 mg/ml and 0.2 mg/ml) of lactotetraose (Accurate Chem. & Sci. Corp., Westbury, N.Y.) or lactose (J. T. Baker Chem. Co., Phillipsburg, N.J.) in PBS. Thereafter the chromatogram binding assay was performed as described above, using chromatograms with separated gangliotetraosylceramide, lactotetraosylceramide and reference glycosphingolipids.
The ability of soluble oligosaccharides to interfere with the binding of Helicobacter pylori to glycosphingolipids on thin-layer plates was examined by incubating radiolabelled Helicobacter pylori strain 17875 with free lactotetraose (0.1 mg/ml) or lactose (0.2 mg/ml) in PBS for 1 h at room temperature before the chromatogram binding assay of the suspensions. […] The lanes were: Galβ3GalNAcβ4Galβ4Glcβ1Cer (gangliotetraosylceramide), 4 μg (lane 1); Galβ3GlcNAcβ3Galβ4Glcβ1Cer (lactotetraosylceramide), 4 μg (lane 2); Galβ4GlcNAcβ3Galβ4Glcβ1Cer (neolactotetraosylceramide), 4 μg (lane 3). The glycosphingolipids were separated on aluminium-backed silica gel 60 HPTLC plates, using chloroform/methanol/water (60:35:8, by volume) as solvent system, and the binding assay was performed as described under “Materials and Methods”, using 2% BSA and 0.1% Tween 20 in PBS as coating buffer. Autoradiography was for 12 h.

Assay [2] concerns Helicobacter pylori. In words: Chromatogram binding assay: 35S-labeled Helicobacter pylori to glycosphingolipids on thin-layer plates. The conditions noted are these: for dependence of binding on other lipids or bile salts (Tween 20, deoxycholate) in the thin-layer chromatogram assay: coating buffer with or without detergent (FIG. 1); for binding of Helicobacter pylori in mixtures of reference glycosphingolipids: strain 17875, non-acid fractions of dog small intestine, guinea pig small intestine, mouse faeces (FIG. 1); for binding of Helicobacter pylori to major acid glycosphingolipids of epithelial cells of human stomach: strains 002 and 032, identified tentatively by mobility on thin-layer chromatograms.

“Also recorded” adds a separate entry of the source.

As for `OC[C@H]1O[C@@H](O[C@H]2[C@H](O)[C@@H](O)C(O)O[C@@H]2CO)[C@H](O)[C@@H](O)[C@H]1O` (stereo partly shown) [lactose, reference compound], the “inhibition of binding of Helicobacter pylori to lactotetraosylceramide” value in assay [1] (bacteria preincubated with 0.2 mg/ml in PBS) was “no inhibitory effect”.

Regarding `CC(=O)N[C@H]1[C@H](O[C@H]2[C@@H](O)[C@@H](CO)O[C@@H](O[C@H]3[C@H](O)[C@@H](O)C(O)O[C@@H]3CO)[C@@H]2O)O[C@H](CO)[C@@H](O)[C@@H]1O[C@@H]1O[C@H](CO)[C@H](O)[C@H](O)[C@H]1O` (stereo partly shown) [lactotetraose, Galβ3GlcNAcβ3Galβ4Glc], in assay [1] (bacteria preincubated with 0.1 mg/ml in PBS), the “inhibition of binding of Helicobacter pylori to lactotetraosylceramide” value is “inhibited the binding”. Moreover, the “blocking of binding of H. pylori to gangliotetraosylceramide” value in assay [1] (preincubation with soluble oligosaccharide (FIG. 5)) is listed as “able to block binding”.

Turning to “Galβ3GalNAcβ4Galβ4Glcβ1Cer [gangliotetraosylceramide]”, in assay [2], the “dependence of binding on other lipids or bile salts (Tween 20, deoxycholate) in the thin-layer chromatogram assay” value is given as “only marginally is affected” and the “binding of Helicobacter pylori in mixtures of reference glycosphingolipids” value (“binding … of reference glycosphingolipids” below) is “binding”.

For Galβ3GlcNAcβ3Galβ4Glcβ1Cer, the “binding activity relative to lactotetraosylceramide from human meconium” value in assay [2] (ceramide exclusively sphingosine and non-hydroxy 16:0 and 24:0 fatty acids, not shown) was “as active as the lactotetraosylceramide from human meconium”.

In the case of Galβ3GlcNAcβ3Galβ4Glcβ1Cer [No. 2], the “Helicobacter pylori isolates expressing the lactotetraosylceramide binding capacity” value in assay [2] (66 isolates of Table I, lactotetraosylceramide of human meconium) is reported as 86%. Moreover, the “recognition by sialic acid-binding H. pylori strain CCUG 17874” value in assay [2] (FIG. 11 B) is on record as “recognised”. In addition, the “recognition by H. pylori strain CCUG 17875 devoid of sialic acid binding capacity” value in assay [2] (FIG. 11 C) is on record as “recognised”. Also, in assay [2] (bacteria grown on agar and in broth, for 12 h and for 120 h), the “effect of bacterial growth conditions on binding” value was “not affected”. Moreover, the “dependence of binding on other lipids or bile salts (Tween 20, deoxycholate) in the thin-layer chromatogram assay” value in assay [2] is on record as “only when other lipids or bile salts, such as Tween 20 or deoxycholate, are used”. Also, the “binding by babAlA2 mutant strain” value in assay [2] (gene coding for the Le^b-binding adhesin inactivated, data not shown) is reported as “Binding”. Further, the “number of Helicobacter pylori isolates expressing the lactotetraosylceramide binding capacity” value in assay [2] (of 66 isolates of Table I, lactotetraosylceramide of human meconium) is 57.

For “NeuAcα3Galβ4Glcβ1Cer [GM3, reference compound]”, the “binding of Helicobacter pylori to major acid glycosphingolipids of epithelial cells of human stomach” value in assay [2] was “No binding”; in assay [2] (listed as GM3 ganglioside), “non-existent”.

In the case of “gangliotriaosylceramide [reference compound]”, in assay [2], the “binding … of reference glycosphingolipids” value is listed as “binding”.

For lactosylceramide [reference compound], the “binding … of reference glycosphingolipids” value in assay [2] is reported as “binding”.

In the case of “maltoheptaose(red) -HDA [reference compound]”, in assay [2] (4-hexadecylaniline (HDA) derivatives, compared with lactotetraosylceramide glycosphingolipid), the “binding activity with regard to Helicobacter pylori in TLC-overlay assay” value is “totally inactive”.

In the case of sulfatide [reference compound], in assay [2], the “binding of Helicobacter pylori to major acid glycosphingolipids of epithelial cells of human stomach” value is recorded as “No binding; also recorded: non-existent”.

For the origin of these results see US20040086514A1, “Novel helicobacter pylori-binding substances and use thereof” (priority 1999, published 2004).
